Columns and labels:
Assay type in all cases: cell-based, human
MCF-7 cells = assay: CellTiter-Glo Luminescent Cell Viability Assay, MCF-7 cells; conditions: MCF-7, 96 hours, 100 μM down to 10 nM, FIG. 6a
Excerpt: (§1) FIGS. 6a-6d depict the results of in vitro assays of the conjugate against four cell lines. FIG. 6A is a chart depicting the results of the conjugate against MCF-7 cells, cells derived from a human breast cancer cell line. FIG. 6B is a chart depicting the results of the conjugate against SK-BR-3 cells, cells derived from a human breast adenocarcinoma cell line. FIG. 6C is a chart depicting the results of the conjugate against HL-60 cells, cells derived from a human promyelocytic leukemia cell line. FIG. 6D is a chart depicting the results of the conjugate against SK-N-MC cells, cells derived from a human brain neuroblastoma (neuroepithelioma) cell line. […]
(§2) After 96 hours, the effects of doxorubicin and B12-S-doxorubicin on cell viability were determined using an assay from Promega. The CellTiter-Glo™ Luminescent Cell Viability Assay quantitates the ATP present in a culture, which correlates with metabolically active cells. Luminescence, which is dependent on ATP concentration, was measured for each individual well on a Wallac MicroBeta® JET Liquid Scintillation and Luminescence Counter. The average luminescence value of the three wells containing medium alone was subtracted from the raw data values to give corrected values. […] The three corrected values for wells dosed with the same concentration of compound were averaged and the standard deviation calculated. […]

SK-BR-3 cells = assay: CellTiter-Glo Luminescent Cell Viability Assay, SK-BR-3 cells; conditions: SK-BR-3, 96 hours, 100 μM down to 10 nM, FIG. 6b
Excerpt: as §1, §2

SK-N-MC cells = assay: CellTiter-Glo Luminescent Cell Viability Assay, SK-N-MC cells; conditions: 96 hours, 100 μM down to 10 nM
Excerpt: FIG. 8 is a chart depicting the results of an in vitro assay of the stable conjugate against SK-N-MC cells, cells derived from a human brain neuroblastoma (neuroepithelioma) cell line. The assay employed is the CellTiter-Glo™ Luminescent Cell Viability Assay from Promega Corporation, which is recognized in the art as being predictive of the effect of a compound on cell viability. FIG. 8 depicts the results of the assay conducted according to Example 9. The method described by Promega Corporation (Technical Bulletin No. 288) was followed with no exceptions.
Doxorubicin and CobalaRubicin-200 stocks and stock solutions, prepared in 5% DMSO in water, were stored at −20° C. and protected from light. […]
as §2, with “Percent cell viability was calculated by considering” for “The three corrected values for wells dosed with”, “untreated cells as 100% viable.” for “same concentration of compound were averaged and the standard deviation calculated.”

COc1cccc2c1C(=O)c1c(O)c3c(c(O)c1C2=O)C[C@@](O)(C(=O)CO)C[C@@H]3O[C@H]1C[C@H](NC(=O)OCc2ccc(NC(=O)[C@H](CCCCN)NC(=O)[C@H](Cc3ccccc3)NC(=O)CCCCCNC(=O)OC[C@H]3O[C@H](n4cnc5cc(C)c(C)cc54)[C@H](O)[C@@H]3OP(=O)(O)O[C@H](C)CNC(=O)CC[C@@]3(C)C4=C(C)C5=NC(=CC6=NC(=C(C)C7=N[C@@](C)([C@H](N4)[C@@H]3CC(N)=O)[C@@](C)(CC(N)=O)[C@@H]7CCC(N)=O)[C@@](C)(CC(N)=O)[C@@H]6CCC(N)=O)C(C)(C)[C@@H]5CCC(N)=O)cc2)[C@H](O)[C@H](C)O1 [conjugate 13, B12-5′-OCONH(CH2)5CO-Phe-Lys-PABC-Dox]
cell viability versus free doxorubicin (MCF-7 cells): same effectiveness as doxorubicin and is slightly less potent than doxorubicin
cell viability versus free doxorubicin (SK-BR-3 cells): same effectiveness as doxorubicin and is slightly less potent than doxorubicin
cell viability / cytotoxicity (SK-N-MC cells; FIG. 6d and FIG. 8): very efficacious
cell viability / cytotoxicity (SK-N-MC cells; FIG. 6d and FIG. 8, listed as CobalaRubicin 200): same effectiveness as doxorubicin and is slightly less potent than doxorubicin

Source: patent US7232805B2, “Cobalamin conjugates for anti-tumor therapy” (Inflabloc Pharmaceuticals, Inc., priority 2003, dated 2007)
